The source of these data is patent US11981953B2, “Method to screen compounds for antifungal activity and pharmaceutical compositions and methods to treat fungal diseases by inhibiting spore germination” (WISCONSIN ALUMNI RESEARCH FOUNDATION, priority 2018, dated 2024).

≈ marks a conversion by molar mass, not a printed value. Counter-ions that a name gives are not always drawn. Like-named read-outs stand apart in the source and are kept apart here.

What all share (type): cell-based
The subject of assay [1] is Cryptococcus neoformans spores (JEC20 x JEC21). Briefly: Quantitative germination assay (microfluidic devices, cell size and shape). Particulars: for Inhibition of spore germination: 16 hours; for Germicidal: plated on YPD after the 16-hour experiment; for Inhibition of spore germination, antifungal drugs: concentration not given, bifonazole and econazole nitrate tested outside the microfluidic device, imaged at 0 and 16 hours; for Spore escape from inhibition (words): yeast population increase = escape. The method, then:
All germination assays are based on Barkal et al., 2016. Briefly, microfluidic devices were loaded with 1×10^5 spores, and at 0 hours, SD media with drug of interest, were added to the sample. Spores were allowed to germinated at 30° C. in a humidified chamber and cells were monitored every two (2) hours for 16 hours. Each assay was performed in two (2) individual wells with three (3) field of views acquired from each well. All images were analyzed as previously described based on cell shape and size. Population ratio of spores, intermediate, and yeast cells were determined. Error bars in plots are based on variation between all fields of view acquired. […] After the 16-hour experiment, samples were plated on YPD and allowed to grow at 30° C. to determine if drugs were completely germicidal or not based on lack of growth. If assays were unable to be performed in microfluidic devices, the […] spores were incubated in identical conditions outside of PDMS devices and only loaded into devices for image acquisition.

The subject of assay [2] is Cryptococcus neoformans (H99). Briefly: MIC/MFC experiments (EUCAST based), H99. The following applies: 48 h; for MFC: Cryptococcus neoformans. The method, then:
(§1) All minimum inhibitory concentration (MIC) experiments were based on EUCAST methodology. […] After 6-hour incubation, yeast cells were washed in 1×PBS and quantified using a hemocytometer. […] Cryptococcus neoformans cells were incubated for 2 days at 30° C. while Candida albicans strains were incubated for 2 days at 35° C. OD600 readings were used to assess the MIC values for each drug. To determine minimum fungicidal concentrations (MFC) values, 3 μL per well were plated on YPD and allowed to grow for 2 days.

For assay [3], the system named is Candida albicans (SC5314). Briefly: MIC/MFC experiments (EUCAST based), Candida albicans. The following applies: SC5314, 48 h. The method, then:
as §1

Assay [4] deals with Cryptococcus neoformans spore germination. The assay is described as follows: High throughput nanoluciferase screen of spore germination (L1300 Selleck FDA-Approved Drug Library). The following applies: signal relative to negative control. An excerpt:
(§2) To identify inhibitors of Cryptococcus neoformans spore germination, a high throughput screen was developed that utilizes a nanoluciferase construct to monitor whether spores germinate in the presence of inhibitor. Briefly a protein luciferase construct was created resulting in a low luciferase signal for non-germinated spores and a high signal from germinated and replicating cells. The screen was coupled with OD600 readings to monitor the ability of compounds to inhibit yeast replication. The examples focused on FDA-approved drugs, as these drugs have the potential of being repurposed into antifungal therapeutics. To determine whether any FDA-approved drugs were able to inhibit Cryptococcus neoformans spore germination and yeast replication, the aforementioned high throughput screen was performed on the L1300 Selleck FDA-Approved Drug Library containing an array of 1108 compounds. This library of compounds is available commercially from Selleck Chemicals, 14408 W Sylvanfield Drive, Houston, Tex. 77014, USA.
(§3) The screening was successful at identifying known antifungal drugs as inhibitors of yeast replication as indicated by an OD600 signal of less than 75% of the negative control (Table 2). For the purpose of these examples, antifungal drugs were defined as any FDA-approved drug used in the treatment of fungal infections. Of these 23 known antifungal drugs, only six (6) were identified as inhibitors of spore germination, indicated by a luciferase signal of less than 30% of the negative control.

In assay [5] the test system is Aspergillus Fumigatus (AF293). The assay is described as follows: Aspergillus fumigatus MIC on conidia. The following applies: for MIC: Aspergillus fumigatus; for Ability to inhibit Aspergillus fumigatus: testing performed on conidia. How it is done: Conidia at a final concentration of 2×10^4 cells were incubated in RPMI, 0.33 M MOPS, and 2% glucose at pH 7 at varying concentrations of inhibitors, with a final volume of 200 μL.

The subject of assay [6] is Cryptococcus neoformans (JEC21). The assay is described as follows: MIC/MFC experiments (EUCAST based), JEC21. The following applies: 48 h; for MFC: Cryptococcus neoformans. How it is done:
as §1

In assay [7] the test system is Cryptococcus neoformans yeast replication. Particulars: signal relative to negative control.
Text: as §2, §3

[8] abbreviates: Table 3, other FDA-approved drugs.
[9] abbreviates: Table 5, yeast, 2 days at 30° C., OD600, read-out: MIC.
Where [10] appears, read: Table 5, plated on YPD, 2 days, read-out: MFC.
[11] abbreviates: Table 5, 2 days at 35° C., OD600, read-out: MIC.
The mark [12] stands for this setting: Table 5, conidia, lowest concentration with complete absence of germ tubes or hyphae, read-out: MIC.
[13] abbreviates: Table 4, yeast, 2 days at 30° C., OD600, read-out: MIC.
[14] abbreviates: Table 4, plated on YPD, 2 days, read-out: MFC.
The mark [15] stands for this setting: Table 4, 2 days at 35° C., OD600, read-out: MIC.
Setting [16] is: Table 4, conidia, lowest concentration with complete absence of germ tubes or hyphae, read-out: MIC.
Setting [17] is: Table 2, antifungal drugs, less than 30% = inhibitor of germination.
Setting [18] is: Table 2, antifungal drugs, less than 75% = inhibitor of yeast replication.

What is called MIC is the least concentration at which growth counts as inhibited. As to `CCN(CC)C(=S)SSC(=S)N(CC)CC` [Disulfiram], the “Stall in germination overall” value in assay [1] (25 μg/mL) was approximately 2 h. Besides, the minimum inhibitory concentration (MIC) worked out at 6.25 µg/mL (≈ 21.1 µM) in assay [2], 6.25 µg/mL (≈ 21.1 µM) in assay [3], 25 µg/mL (≈ 84.3 µM) in assay [5] and 3.13 µg/mL (≈ 10.6 µM) in assay [6]. In addition, the MFC came to 6.25 µg/mL (≈ 21.1 µM) in assay [2], 12.5 µg/mL (≈ 42.2 µM) in assay [3] and 3.13 µg/mL (≈ 10.6 µM) in assay [6]. In assay [4] (setting [8]), the “Germination Percent Luciferase Signal” value was found to be 22.7%. In addition, the “Replication Percent OD600” value in assay [7] (setting [8]) turned out to be 65.6%.

For `O=C(Nc1ccc([N+](=O)[O-])cc1Cl)c1cc(Cl)ccc1O` [Niclosamide], the “Inhibition of spore germination” value in assay [1] (25 μg/mL) was “completely inhibit germination”. For the same molecule, the “Germicidal” value in assay [1] (25 μg/mL) is recorded as “not fully germicidal”. In addition, the minimal inhibitory concentration (MIC) was 1.56 µg/mL (≈ 4.77 µM) in assay [2] (setting [9]), more than 100 µg/mL in assay [3] (setting [11]), more than 100 µg/mL in assay [5] (setting [12]) and less than 0.78 µg/mL in assay [6] (setting [9]). Also, the results for the MFC in assay [2] (setting [10]), in assay [3] (setting [10]) and in assay [6] (setting [10]) were more than 100 µg/mL, more than 100 µg/mL and 1.56 µg/mL (≈ 4.77 µM), respectively. The “Germination Percent Luciferase Signal” value in assay [4] (setting [8]) came out at 7.8%. The “Replication Percent OD600” value in assay [7] (setting [8]) is reported as 43.4%.

For the molecule `N=C(N)c1ccc(OCCCCCOc2ccc(C(=N)N)cc2)cc1` [Pentamidine isethionate], the “Inhibition of spore germination, antifungal drugs” value (“Inhibition … antifungal drugs” for short) in assay [1] is reported as “able to successfully inhibit spore germination”. Besides, the “Spore escape from inhibition (words)” value in assay [1] was “none of the ˜10,000 spores showed inherent resistance and escape from inhibition”. The MIC was 6.25 µg/mL in assay [2] (setting [13]), 50 µg/mL in assay [3] (setting [15]), more than 100 µg/mL in assay [5] (setting [16]) and 1.56 µg/mL in assay [6] (setting [13]). Also, the MFC in assay [2] (setting [14]) came to 6.25 µg/mL; in assay [3] (setting [14]), 50 µg/mL; in assay [6] (setting [14]), 3.13 µg/mL.

As to `CCCCCCCCOc1ccccc1C(=O)Nc1ccc(C(=O)OCC[N+](C)(CC)CC)cc1` [Otilonium bromide], in assay [1] (25 μg/mL), the “Inhibition of spore germination” value is on record as “completely inhibit spore germination”. For the same molecule, the “Germicidal” value in assay [1] (25 μg/mL) was “fully germicidal”. In addition, the MIC in assay [2] (setting [9]) amounted to 3.13 µg/mL; in assay [3] (setting [11]) it was 3.13 µg/mL; in assay [5] (setting [12]), 6.25 µg/mL; in assay [6] (setting [9]) it was 3.13 µg/mL. The MFC in assay [2] (setting [10]), in assay [3] (setting [10]) and in assay [6] (setting [10]) was 3.13 µg/mL in each case. In addition, the “Germination Percent Luciferase Signal” value in assay [4] (setting [8]) is recorded as 6.9%. For the same molecule, the “Ability to inhibit Aspergillus fumigatus” value in assay [5] is recorded as “able to inhibit A. fumigatus”. In addition, the “Replication Percent OD600” value in assay [7] (setting [8]) was found to be 29.0%.

On to `c1ccc(-c2ccc(C(c3ccccc3)n3ccnc3)cc2)cc1` (stereo not shown) [Bifonazole], for which the “Inhibition … antifungal drugs” value in assay [1] is “able to inhibit spore germination effectively”. Besides, in assay [1], the “Spore escape from inhibition (words)” value is recorded as “spore escape apparent”. In addition, the minimum inhibitory concentration (MIC) in assay [2] (setting [13]) was 6.25 µg/mL (≈ 20.1 µM); in assay [3] (setting [15]), more than 100 µg/mL; in assay [5] (setting [16]) it was more than 100 µg/mL; in assay [6] (setting [13]) it was 6.25 µg/mL (≈ 20.1 µM). For the same molecule, the MFC in assay [2] (setting [14]) is more than 100 µg/mL; in assay [3] (setting [14]), more than 100 µg/mL; in assay [6] (setting [14]), 6.25 µg/mL (≈ 20.1 µM). The “Germination Percent Luciferase Signal” value in assay [4] (setting [17]) was 13.6%. Besides, in assay [5], the “Ability to inhibit Aspergillus fumigatus” value is reported as “unable to inhibit”. The “Replication Percent OD600” value in assay [7] (setting [18]) is 33.4%.

`Clc1ccc(COC(Cn2ccnc2)c2ccc(Cl)cc2Cl)cc1` (stereo not shown) [Econazole nitrate]: the “Inhibition … antifungal drugs” value in assay [1] was “able to inhibit spore germination effectively”. Further, the MIC is less than 0.78 µg/mL in assay [2] (setting [13]), 6.25 µg/mL in assay [3] (setting [15]), 3.13 µg/mL in assay [5] (setting [16]) and less than 0.78 µg/mL in assay [6] (setting [13]). For the same molecule, the MFC in assay [2] (setting [14]) was determined as 6.25 µg/mL; in assay [3] (setting [14]), 12.5 µg/mL; in assay [6] (setting [14]), 6.25 µg/mL. Moreover, in assay [4] (setting [17]), the “Germination Percent Luciferase Signal” value is 16.1%. The “Ability to inhibit Aspergillus fumigatus” value in assay [5] is given as “able to inhibit its growth”. Further, the “Replication Percent OD600” value in assay [7] (setting [18]) is 33.1%.

As to `CCCCC(CC)CNC(=N)NC(=N)NCCCCCCNC(=N)NC(=N)NCC(CC)CCCC` (stereo not shown) [Alexidine HCl], the “Inhibition of spore germination” value in assay [1] (25 μg/mL) is “completely inhibit spore germination”. Further, in assay [1] (25 μg/mL), the “Germicidal” value is “fully germicidal”. The MIC in assay [2] (setting [9]), in assay [3] (setting [11]), in assay [5] (setting [12]) and in assay [6] (setting [9]) was less than 0.78 µg/mL in each case. Further, the MFC in assay [2] (setting [10]), in assay [3] (setting [10]) and in assay [6] (setting [10]) was less than 0.78 µg/mL throughout. For the same molecule, the “Germination Percent Luciferase Signal” value in assay [4] (setting [8]) is given as 4.6%. The “Ability to inhibit Aspergillus fumigatus” value in assay [5] is “extremely potent”. Besides, in assay [7] (setting [8]), the “Replication Percent OD600” value worked out at 29.6%.

For `CO[C@H]1C[C@@H]2CC[C@@H](C)[C@@](O)(O2)C(=O)C(=O)N2CCCC[C@H]2C(=O)O[C@H]([C@H](C)C[C@@H]2CC[C@@H](OC(=O)C(C)(CO)CO)[C@H](OC)C2)CC(=O)[C@H](C)/C=C(\C)[C@@H](O)[C@@H](OC)C(=O)[C@H](C)C[C@H](C)/C=C/C=C/C=C/1C` [Temsirolimus], the “Inhibition of spore germination” value in assay [1] (25 μg/mL) was “partially inhibit germination”. The “Germicidal” value in assay [1] (25 μg/mL) is “Neither temsirolimus nor disulfiram were germicidal”. In addition, the MIC was 6.25 µg/mL (≈ 6.07 µM) in assay [2] (setting [9]), 1.56 µg/mL (≈ 1.51 µM) in assay [3] (setting [11]), more than 100 µg/mL in assay [5] (setting [12]) and 6.25 µg/mL (≈ 6.07 µM) in assay [6] (setting [9]). Also, the MFC in assay [2] (setting [10]) turned out to be 6.25 µg/mL (≈ 6.07 µM); in assay [3] (setting [10]) it was 1.56 µg/mL (≈ 1.51 µM); in assay [6] (setting [10]) it was 6.25 µg/mL (≈ 6.07 µM). Moreover, the “Germination Percent Luciferase Signal” value in assay [4] (setting [8]) stood at 21.3%. In addition, in assay [7] (setting [8]), the “Replication Percent OD600” value amounted to 59.2%.
